Reference: US20170119776A1, “CHIRAL 2,5-DISUBSTITUTED CYCLOPENTANECARBOXYLIC ACID DERIVATIVES AND USE THEREOF” (BAYER PHARMA AKTIENGESELLSCHAFT, priority 2014, published 2017)

How the values were obtained:
[1] = target: T1, MMP-7 of the mouse (Mus musculus, UniProt Q10738); assay: In vitro MMP-7 inhibition test of the mouse; type: biochemical
T1 construct: purchased R&D Systems 2967-MP
T1 sequence (Q10738 95-264): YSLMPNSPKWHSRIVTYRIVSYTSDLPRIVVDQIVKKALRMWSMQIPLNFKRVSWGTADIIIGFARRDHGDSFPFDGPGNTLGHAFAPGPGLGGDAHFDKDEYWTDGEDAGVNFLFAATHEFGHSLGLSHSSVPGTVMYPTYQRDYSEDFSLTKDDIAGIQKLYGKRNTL
Description: The activity strength of the compounds according to the invention towards other MMPs (and therefore their selectivity) is likewise ascertained in in vitro inhibition tests. The MMP-mediated amidolytic cleavage of a suitable peptide substrate also leads here to a fluorescent light increase. The signal intensity of the fluorescent light is directly proportional to the enzyme activity. The active concentration of a test compound at which half of the enzyme is inhibited (50% signal intensity of the fluorescent light) is given as IC50 value.
Recombinant MMP-7 of the mouse (R&D Systems, 2967-MP) is chemically activated in accordance with the manufacturer's instructions using APMA. 1 μl of the test compound to be analysed (as a solution in DMSO, suitable concentrations e.g. 1 nM to 30 μM) is pipetted into 24 μl of activated enzyme (final concentration e.g. 0.5 nM) in reaction buffer (50 mM Tris/HCl pH 7.5, 10 mM CaCl2, 150 mM NaCl, 0.05% Brij®-35) in a white 384-hole microtiter plate (MTP). The enzymatic reaction is started by adding the intramolecularly quenched substrate Mca-Lys-Pro-Leu-Gly-Leu-Dpa(Dnp)-Ala-Arg-NH2 (final concentration e.g. 5 μM; R&D Systems, ES-010), such that a total test volume of 50 μl results. The progress of the MMP-7 reaction is measured by measuring the fluorescence intensity (excitation 320 nm, emission 410 nm) over a suitable period (e.g. over 120 min at a temperature of 32° C.).
Tables 3A and 3B below give the IC50 values from these tests for the inhibition of rodent MMPs for representative embodiment examples of the present invention and also for two structurally related comparison compounds from the prior art (as racemate and separated enantiomer)→(in part as average values from several independent individual determinations and rounded to two significant places). The IC50 values were determined for racemates and enantiomers from differently generated DMSO stock solutions. Whereas an automatically created DMSO stock solution from the internal substance logistics was used for racemates by means of a standard method, in the case of enantiomers, in each case a freshly produced, manually prepared DMSO stock solution was used for a more precise direct comparison of the enantiomers with one another.

[2] = target: T2, human macrophage elastase (HME/hMMP-12) (Homo sapiens, UniProt P39900); assay: In vitro HME inhibition test (standard / high-sensitivity), without BSA; type: biochemical; conditions: absence of serum albumin (BSA)
T2 construct: 0.5 nM HME; purchased R&D Systems 917-MP
Description: The activity of the compounds according to the invention towards HME (MMP-12) is ascertained in an in vitro inhibition test. The HME-mediated amidolytic cleavage of a suitable peptide substrate leads herein to a fluorescent light increase. The signal intensity of the fluorescent light is directly proportional to the enzyme activity. The active concentration of a test compound at which half of the enzyme is inhibited (50% signal intensity of the fluorescent light) is given as IC50 value.
In a 384 hole microtiter plate, in a test volume of in total 41 μl of the test buffer (0.1 M HEPES pH 7.4, 0.15 M NaCl, 0.03 M CaCl2, 0.004 mM ZnCl2, […], 0.005% Brij®), the enzyme (0.5 nM HME; R&D Systems, 917-MP, autocatalytic activation according to the manufacturer's instructions) and the intramolecularly quenched substrate [5 μM Mca-Pro-Leu-Gly-Leu-Glu-Glu-Ala-Dap(Dnp)-NH2; Bachem, M-2670] are incubated in the absence and presence of the test substance (as solution in DMSO) for two hours at 37° C. The fluorescent light intensity of the test batches is measured (excitation 323 nm, emission 393 nm). The IC50 values are ascertained by plotting the fluorescent light intensity against the active ingredient concentration.
If subnanomolar IC values are produced for high potent test substances in the standard HME inhibition test described above, then a modified test is used for their more precise determination. Here, a ten-fold lower enzyme concentration is used (final concentration e.g. 0.05 nM), in order to achieve an increased sensitivity of the test. The incubation time of the test is accordingly chosen to be longer (e.g. 16 hours).
Table 1 below gives the IC50 values from these HME inhibition tests for the working examples of the present invention and also for two structurally related comparison compounds from the prior art (as racemate or separated enantiomers)→(sometimes as average values from several independent individual determinations and rounded to two significant places). The IC50 values were determined for racemates and enantiomers from differently generated DMSO stock solutions. Whereas an automatically created DMSO stock solution from the internal substance logistics was used for racemates by means of a standard method, for enantiomers and for a more precise direct comparison of the enantiomers with one another, in each case a freshly produced, manually prepared DMSO stock solution was used.

T2 sequence (P39900 106-470): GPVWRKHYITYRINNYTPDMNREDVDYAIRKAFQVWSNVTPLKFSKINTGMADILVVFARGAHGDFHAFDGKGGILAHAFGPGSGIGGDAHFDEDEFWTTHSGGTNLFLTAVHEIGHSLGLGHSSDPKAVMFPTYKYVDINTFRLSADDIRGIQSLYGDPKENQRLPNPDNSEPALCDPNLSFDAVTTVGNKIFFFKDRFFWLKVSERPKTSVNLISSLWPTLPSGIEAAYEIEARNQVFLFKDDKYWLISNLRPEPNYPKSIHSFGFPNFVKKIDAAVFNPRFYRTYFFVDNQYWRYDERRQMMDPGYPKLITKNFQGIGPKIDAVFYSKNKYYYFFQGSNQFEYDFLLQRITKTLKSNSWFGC

SMILES | IC50 [1] [nM] | IC50 [2] [nM]
O=C(O)[C@H]1[C@H](Cn2nnc3ccccc3c2=O)CC[C@@H]1C(=O)c1ccc(-c2ccc(Cl)cc2)cc1 (racemic) [Comparative Example A-1, (1RS,2RS,5SR)-2-[(4′-chlorobiphenyl-4-yl)carbonyl]-5-[(4-oxo-1,2,3-benzotriazin-3(4H)-yl)methyl]cyclopentanecarboxylic acid (racemate)] | 15 | 0.043
CCCCCOc1ccc(C(=O)CC(CCn2nnc3ccccc3c2=O)C(=O)O)cc1 (racemic) [Comparative Example B-1, (+/−)-4-Oxo-2-[2-(4-oxo-1,2,3-benzotriazin-3(4H)-yl)ethyl]-4-[4-(pentyloxy)phenyl]butanoic acid (racemate)] | 1400 | 1.5
O=C(O)[C@H]1[C@H](Cn2nnc3ccccc3c2=O)CC[C@@H]1C(=O)c1ccc(OCc2ccccc2)cc1 (racemic) [Example 1, (+/−)-(1RS,2RS,5SR)-2-[4-(Benzyloxy)benzoyl]-5-[(4-oxo-1,2,3-benzotriazin-3(4H)-yl)methyl]cyclopentanecarboxylic acid (racemate)] | 46 | 0.059
CCCCCOc1ccc(C(=O)CC(CCn2nnc3ccccc3c2=O)C(=O)O)cc1 (single isomer, unassigned; enantiomer 1) [Comparative Example B-2, (+)-4-Oxo-2-[2-(4-oxo-1,2,3-benzotriazin-3(4H)-yl)ethyl]-4-[4-(pentyloxy)phenyl]butanoic acid (enantiomer 1)] | 525 | 1.6
O=C(O)[C@@H]1[C@@H](Cn2nnc3ccccc3c2=O)CC[C@H]1C(=O)c1ccc(-c2ccc(Cl)cc2)cc1 (single isomer, unassigned; enantiomer 2) [Comparative Example A-3, (1RS,2RS,5SR)-2-[(4′-Chlorobiphenyl-4-yl)carbonyl]-5-[(4-oxo-1,2,3-benzotriazin-3(4H)-yl)methyl]cyclopentanecarboxylic acid (enantiomer 2)] | 6.2 | 0.018
O=C(O)[C@H]1[C@H](Cn2nnc3ccccc3c2=O)CC[C@@H]1C(=O)c1ccc(OCc2ccccc2)cc1 [Example 2, (+)-(1S,2S,5R)-2-[4-(Benzyloxy)benzoyl]-5-[(4-oxo-1,2,3-benzotriazin-3(4H)-yl)methyl]cyclopentanecarboxylic acid] | 22 | 0.071
